In US7476646B1, “Agricultural promoters/active ingredients” (CJB Industries, Inc., priority 2004, dated 2009):

Legend:
[1] = tested on: Erwinia carotovora; experiment: Effect of quat salts on Erwinia carotovora (percent inhibition); type: cell-based
Procedure: To measure the antibacterial effectiveness of the quat salts, the effect of various salts, at an application rate of 50 ppm, was measured. The data regarding the effectiveness is summarized below:
The effectiveness of lower concentrations of the quat salts at inhibiting Erwinia carotovora infection was also measured, where various additives were also added.

[2] = tested on: Staphylococcus; conditions: on Staphylococcus; cited from earlier work
[3] = on contact lenses; cited from earlier work
[4] = tested on: fungal and bacterial pathogens; experiment: Field control trial, plant growth, grower rating, phytotoxicity, overall control; type: in vivo; conditions: comparison area
Source text: This composition was applied to a field to which other treatments had been applied. The conditions under which this field control was studies are summarized below.
Treatment—400 ppm Dicocodimethylammonium chloride+1200 ppm EDTA+400 ppm Citric acid+40 ppm soyamine+3000 ppm soybean oil+180 ppm Tergitol NP-6
The field was visited the day of application for a pre-spray disease rating. Major problems were observed, and minor problems were observed as well. Ratings were made on the major diseases Bacterial Spot, Grey Mold, Blight, and Leaf Spot. The observations and % ratings were also taken for Rhizoctonia, Powdery Mildew, Stem Rot, and Bacterial Speck.
The quat salt treatment was applied at a rate of 1 gallon of the composition/100 gallons of water/acre. This relatively low treatment rate provided some concerns regarding complete coverage due to the low volume of water and bushiness of the plants. Blight and Stem Rot were both located at the lower portion of the plant and concealed by a lot of foliage.
Four plants had been marked on day 1 so that their progress could be tracked both in terms of growth and disease control. All four had grown between 5 and 7 inches in height with a tremendous amount of flowering and new growth present.
The grower gave the Treatment a 4 on a scale of 1 (Poor) to 5 (Perfect), when compared to hydrogen peroxide. H is rating for hydrogen peroxide was 2.5 to 3.

Compound | Percent Inhibition ([1]; application rate of 50 ppm) | other results
Ditallow dimethyl ammonium chloride | 50% | –
Cocoalkyltrimethyl ammonium chloride | 25% | –
Soyalkyltrimethyl ammonium chloride | 35% | –
Tallowalkyltrimethyl ammonium chloride | 30% | –
Dicoco dimethyl ammonium chloride | 75% | Percent Inhibition ([1]; 30 ppm dicoco dimethyl ammonium chloride with additive (level relative to quat)): 40%
Benzalkonium chloride [BAC] | – | effectiveness relative to other QACs tested [2]: about 2.5; effectiveness relative to other QACs [3]: about 6 times
S=C([S-])NCCNC(=S)[S-].[Zn+2] [Dithane, zinc ethylenebis(dithiocarbamate)] | – | response of diseases in treated area [4]: responding (especially on molds and mildews) but not as rapid and completely
